Data reported in PMC2862773 (International journal of biological macromolecules, 2010).
Entries after “also recorded” stand apart in the source; their conditions may differ.

Assays:
[1] = test system: E. coli strain pBWU13.4/DK8; assay: Growth yield in limiting glucose medium in presence of bioflavonoid compounds; type: cell-based, Escherichia coli; conditions: OD595 after ~20 hours growth at 37 °C; control 100, null 45
[2] = target: E. coli ATP synthase (purified F1 or membrane bound F1Fo) (Escherichia coli, UniProt P0ABA6+P0ABB0+P0ABB4); type: biochemical; conditions: for Residual ATPase Activity (%): left over ATPase activity at maximal inhibition
[3] = target: E. coli ATP synthase (purified F1 or membrane bound enzyme) (Escherichia coli, UniProt P0ABA6+P0ABB0+P0ABB4); assay: Reversal of ATPase inhibition by dilution or centrifuge columns; type: biochemical; conditions: dilution to non-inhibitory concentration or twice through centrifuge columns
[4] = test system: rat brain and liver mitochondrial F1Fo ATP synthase; conditions: cited from earlier work
[5] = test system: cultured human lymphoblastoid and other mammalian cells; conditions: not in ρ° cells; cited from earlier work
[6] = test system: E. coli enzyme mutants αR283A/Q, αE284A/Q, βS263A/Q, γT273A/Q, γQ274A/K, γT277A/Q, γE278A/Q; assay: Inhibition of polyphenol binding pocket mutants of E. coli enzyme; type: biochemical, Escherichia coli; conditions: unpublished results of the authors
E. coli ATP synthase = conditions: cited from earlier work
[7] = test system: androgen-responsive human prostate carcinoma cells (LNCaP); conditions: concentrations of up to 50μmol/L/day; cited from earlier work
[8] = test system: normal human prostate cells; conditions: at similar concentrations (up to 50μmol/L/day); cited from earlier work
[9] = purified F1 or membrane bound F1Fo
[10] = mitochondrial F1Fo ATP synthase

Oc1cc(O)c2c(c1)O[C@H](c1ccc(O)c(O)c1)[C@H](O)C2 [(−)-Epicatechin]
Growth yield in limiting glucose (%) [1]: 53% | Residual ATPase Activity (%) ([2]; 60 min preincubation): 0% | Extent of inhibition of ATPase activity, in words [2, 9]: complete inhibition

NC12CC3CC(CC(C3)C1)C2 [Amantadin, reference compound]
Growth yield in limiting glucose (%) [1]: 51% | Residual ATPase Activity (%) ([2]; 60 min preincubation): 0% | Extent of inhibition of ATPase activity, in words [2, 9]: complete inhibition | Inhibition of ATPase activity (maximal extent) ([2]; purified F1 or membrane bound F1Fo, 60 min preincubation): ~ 100%

O=c1cc(-c2ccc(O)cc2)oc2cc(O)cc(O)c12 [Apigenin]
Reversibility of inhibition [3]: reversible | Residual ATPase Activity (%) ([2]; 60 min preincubation): 60% | IC50 [4, 10]: ~100 µM

O=c1cc(-c2ccccc2)oc2cc(O)c(O)c(O)c12 [Baicalein]
Growth yield in limiting glucose (%) [1]: 48% | Residual ATPase Activity (%) ([2]; 60 min preincubation): 0% | Extent of inhibition of ATPase activity, in words [2, 9]: complete inhibition

O=c1cc(-c2ccccc2)oc2cc(O)cc(O)c12 [Chrysin]
Growth yield in limiting glucose (%) [1]: 73% | Residual ATPase Activity (%) ([2]; 60 min preincubation): 40%

O=c1c(-c2ccc(O)cc2)coc2cc(O)ccc12 [Daidzein]
Growth yield in limiting glucose (%) [1]: 96% | Extent of inhibition of ATPase activity, in words [2, 9]: insignificant

COc1ccc(-c2cc(=O)c3c(O)cc(O[C@@H]4O[C@H](CO[C@@H]5O[C@@H](C)[C@H](O)[C@@H](O)[C@H]5O)[C@@H](O)[C@H](O)[C@H]4O)cc3o2)cc1O [Diosmin]
Extent of inhibition of ATPase activity, in words [2, 9]: partial inhibition

O=c1c(O)c(-c2ccccc2)oc2cc(O)cc(O)c12 [Galangin]
Growth yield in limiting glucose (%) [1]: 93% | Extent of inhibition of ATPase activity, in words [2, 9]: insignificant; also recorded: no inhibition

O=c1c(-c2ccc(O)cc2)coc2cc(O)cc(O)c12 [Genistein]
Growth yield in limiting glucose (%) [1]: 87%

COc1ccc([C@@H]2CC(=O)c3c(O)cc(O[C@@H]4O[C@H](CO[C@@H]5O[C@@H](C)[C@H](O)[C@@H](O)[C@H]5O)[C@@H](O)[C@H](O)[C@H]4O)cc3O2)cc1O [Hesperidin]
Growth yield in limiting glucose (%) [1]: 76% | Residual ATPase Activity (%) ([2]; 60 min preincubation): 40% | Extent of inhibition of ATPase activity, in words [2, 9]: partial inhibition

O=c1cc(-c2ccc(O)c(O)c2)oc2cc(O)cc(O)c12 [Luteolin]
Growth yield in limiting glucose (%) [1]: 87% | Extent of inhibition of ATPase activity, in words [2, 9]: insignificant

O=c1c(O)c(-c2ccc(O)cc2O)oc2cc(O)cc(O)c12 [Morin hydrate]
Growth yield in limiting glucose (%) [1]: 46% | Residual ATPase Activity (%) ([2]; 60 min preincubation): 0% | Extent of inhibition of ATPase activity, in words [2, 9]: complete inhibition

CC[C@H]1/C=C/C=C/C[C@@H](C)[C@H](O)[C@@](C)(O)C(=O)[C@@H](C)[C@H](O)[C@@H](C)C(=O)[C@@H](C)[C@H](O)[C@@H](C)/C=C/C(=O)O[C@@H]2[C@H](C)[C@H](CC1)O[C@]1(CC[C@H](C)[C@H](C[C@@H](C)O)O1)[C@H]2C [Oligomycin]
Time to apoptotic suicide response [5]: 12 to 18 h

O=c1c(O)c(-c2ccc(O)c(O)c2)oc2cc(O)cc(O)c12 [Quercetin]
Inhibition of mutant enzymes [6]: loss of inhibition | IC50 [4, 10]: 55 to 65 µM | IC50 (E. coli ATP synthase; E. coli ATP synthase): ~33 µM | Reversibility of inhibition (E. coli ATP synthase; binds non-covalently at the polyphenol binding site): reversible | Inhibition of E. coli ATP synthase (E. coli ATP synthase): ~ 80%

CC(N)C12CC3CC(CC(C3)C1)C2 (stereo not drawn) [Rimantadine, reference compound]
Growth yield in limiting glucose (%) [1]: 52% | Residual ATPase Activity (%) ([2]; 60 min preincubation): 0% | Extent of inhibition of ATPase activity, in words [2, 9]: complete inhibition

C[C@@H]1O[C@@H](OC[C@H]2O[C@@H](Oc3c(-c4ccc(O)c(O)c4)oc4cc(O)cc(O)c4c3=O)[C@H](O)[C@@H](O)[C@@H]2O)[C@H](O)[C@H](O)[C@H]1O [Rutin hydrate]
Growth yield in limiting glucose (%) [1]: 87%

COc1cc(C2Oc3cc([C@H]4Oc5cc(O)cc(O)c5C(=O)[C@@H]4O)ccc3OC2CO)ccc1O (stereo partly drawn) [Silibinin]
Growth yield in limiting glucose (%) [1]: 47% | Residual ATPase Activity (%) ([2]; 60 min preincubation): 0% | Extent of inhibition of ATPase activity, in words [2, 9]: complete inhibition

O=c1c(-c2ccc(O)cc2)coc2cc(O[C@@H]3O[C@H](CO)[C@@H](O)[C@H](O)[C@H]3O)cc(O)c12 [genistin]
Inhibition of ATPase activity ([4]; up to 140 μM): did not inhibit

Oc1cc(O)cc(/C=C/c2ccc(O)c(O)c2)c1 [piceatannol]
Inhibition of mutant enzymes [6]: loss of inhibition

Oc1ccc(/C=C/c2cc(O)cc(O)c2)cc1 [resveratrol]
Inhibition of mutant enzymes [6]: loss of inhibition | Time to inhibition [4, 10]: 1 to 2 min | Effect on apoptosis [7]: stimulation of apoptosis | Effect on rate of cell death [8]: no effect
